# Measurements as given in PMC3605511, “Tumor P-Glycoprotein Correlates with Efficacy of PF-3758309 in in vitro and in vivo Models of Colorectal Cancer” (Frontiers in Pharmacology, 2013).
# Where two headings read alike, the source gives them in different places.
# Columns and labels:
# T84 = assay: Cell proliferation assay, T84; type: cell-based; conditions: Homo sapiens; T84, PF-309 alone, 72 h; 1 uM was the maximum concentration used
# Description: (§1) Cytotoxic/proliferation effects were determined using the sulforhodamine B (SRB) assay (Skehan et al., [1990]) or by resazurin. Briefly, cells in logarithmic growth phase were transferred to 96 well flat bottom plates with lids. One-hundred microliter cell suspensions containing 1500–5000 viable cells were plated into each well and incubated overnight prior to exposure with increasing concentrations of PF-309 for 3–5 days, dependent upon cell type. Media was removed and cells were fixed with cold 10% trichloroacetic acid for 30 min at 4°C. Cells were then washed with water and stained with 0.4% SRB (Fisher Sci., Pittsburgh, PA, USA) for 30 min at room temperature, washed again with 1% acetic acid, followed by stain solubilization with 10 mM tris at room temperature. The plate was then read on a plate reader (Biotek Synergy 2, Winooski, VT, USA) set at an absorbance wavelength of 565 nm. Cell proliferation curves were derived from the raw absorbance (OD) data.
# (§2) Since PF-309 appeared to be a strong P-gp and BCRP substrates, we sought to evaluate if the transporters influenced sensitivity in vitro. We evaluated the sensitivity of CRC cell lines to PF-309 treatment in a panel of 27 lines. Cells were exposed to PF-309 at a range of concentrations for 72 h and cell content measured by SRB assay (see Pitts et al., [2013]). […]
# Caco-2 = assay: Cell proliferation assay, Caco-2; type: cell-based; conditions: Homo sapiens
# Description: as §1, §2
# LS1034 = assay: Cell proliferation assay, LS1034; type: cell-based; conditions: Homo sapiens, LS-1034; LS1034, PF-309 alone, 72 h; 1 uM was the maximum concentration used
# Description: as §1, §2
# [1] = Tumor concentration 6 h after a single dose, P-gp tumor concentration study; type: in vivo, mice; conditions: single dose 25 mg/kg, 6 h post treatment; SW480 and HCT15 vs GEO and HCT116 xenografts
# Description: Plasma and tumor samples were collected 1 h post treatment at the end of therapeutic studies or 6 h post treatment for P-gp tumor concentration studies. PF-309 was measured in mouse plasma and tumor tissue using a validated LC/MS/MS assay carried out by the University of Colorado Cancer Center Pharmacology Shared Resource. Positive ion electrospray ionization (ESI) mass spectra were obtained with a 3200 QTrap triple quadrupole mass spectrometer (Applied Biosystems Inc., Foster City, CA, USA) with a turboionspray source interfaced to an Agilent 1200 Series binary HPLC system (Agilent Technologies Inc., Santa Clara, CA, USA), and a HTC-PAL auto-sampler (LEAP Technologies, Carrboro, NC, USA). […]
# Finally, we determined if the presence of P-gp affects tumor concentration. We evaluated the tumor concentration in two tumor xenograft lines with high ABCB1 gene expression (SW480 and HCT15) and two tumor xenografts with low ABCB1 gene expression (GEO and HCT116). Tumors from animals treated with a single dose of 25 mg/kg PF-309 were collected 6 h post treatment and concentrations analyzed. […] Tumors were also analyzed by western blot to confirm the presence or absence of P-gp, which agreed with the gene expression data (Figure 7B).
structure (smiles),measurement,setting,value
Cc1nc(Nc2n[nH]c3c2CN(C(=O)N[C@H](CN(C)C)c2ccccc2)C3(C)C)c2sccc2n1 [PF-309],IC50,T84,> 1000 nM
same,IC50,"Caco-2; Caco-2, CACO2, 72 h, SRB assay, read-out: IC50",> 1000 nM
same,IC50,"Caco-2; Caco-2, PF-309 alone, 72 h, read-out: PF-309 IC50",300 nM
same,IC50,LS1034,> 1000 nM
same,"tumor concentration, high tumor P-gp vs low ABCB1 expression",[1],∼four fold lower
